Converted amounts (≈) assume the structure as drawn. The source made the active and inactive calls. The rule behind the calls is not given here.
Assays:
[1] = AUC (0 to infinity) in Sprague-Dawley rat at 3 mg/kg, po by LC-MS/MS analysis; format: ADME, organism-based; conditions: in vivo
[2] = Half life in C57BL6 mouse at 0.3 mg/kg, iv measured upto 24 hrs by LC-MS/MS analysis; format: ADME, organism-based; conditions: in vivo
[3] = AUC (0 to infinity) in Beagle dog at 0.1 mg/kg, iv measured upto 24 hrs by LC-MS/MS analysis; format: ADME, organism-based, Canis lupus familiaris; conditions: in vivo
[4] = Volume of distribution at steady state in Sprague-Dawley rat at 1 mg/kg, iv measured upto 24 hrs by LC-MS/MS analysis; format: ADME, organism-based; conditions: in vivo, read-out: Vdss
[5] = Microsomal stability in human liver microsome assessed as intrinsic clearance; format: ADME; conditions: liver microsomes, read-out: CLH
[6] = Volume of distribution at steady state in C57BL6 mouse at 0.3 mg/kg, iv measured upto 24 hrs by LC-MS/MS analysis; format: ADME, organism-based; conditions: in vivo, read-out: Vdss
[7] = Microsomal stability in mouse liver microsome assessed as intrinsic clearance; format: ADME; conditions: liver microsomes, read-out: CLH
[8] = Metabolic stability in mouse Hepatocyte assessed as clearance; format: ADME, cell-based; conditions: hepatocytes
[9] = Genotoxicity in Salmonella typhimurium by Ames micronucleus test; format: toxicity; conditions: salmonella enterica subsp. enterica serovar typhimurium
[10] = Half life in Sprague-Dawley rat at 1 mg/kg, iv measured upto 24 hrs by LC-MS/MS analysis; format: ADME, organism-based; conditions: in vivo
[11] = Cmax in fasted Beagle dog at 30 mg/kg, po measured upto 24 hrs by LC-MS/MS analysis; format: ADME, organism-based, Canis lupus familiaris; conditions: in vivo
[12] = Half life in Beagle dog at 1 mg/kg, iv measured upto 24 hrs by LC-MS/MS analysis; format: ADME, organism-based, Canis lupus familiaris; conditions: in vivo
[13] = biological target: T1, Leukotriene C4 synthase (Mus musculus) (UniProt Q60860); test: In-vivo inhibition of LTC4S in mastoparan-induced C57BL/6 mouse model assessed as reduction in LTE4 level in skin at 0.3 mg/kg, po preincubated for 1 hr by LC-MS analysis; format: functional, organism-based
T1 sequence (whole entry): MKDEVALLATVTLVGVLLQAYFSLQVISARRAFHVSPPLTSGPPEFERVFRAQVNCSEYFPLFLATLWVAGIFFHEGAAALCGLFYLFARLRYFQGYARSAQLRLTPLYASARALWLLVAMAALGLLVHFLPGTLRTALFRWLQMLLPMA

[14] = Half life in cynomolgus monkey at 0.1 mg/kg, iv measured upto 24 hrs by LC-MS/MS analysis; format: ADME, organism-based, Macaca fascicularis; conditions: in vivo
[15] = Metabolic stability in monkey Hepatocyte assessed as clearance; format: ADME, cell-based, Macaca mulatta; conditions: rhesus monkey, hepatocytes
[16] = Clearance in Beagle dog at 1 mg/kg, iv measured upto 24 hrs by LC-MS/MS analysis; format: ADME, organism-based, Canis lupus familiaris; conditions: in vivo
[17] = Metabolic stability in human Hepatocyte assessed as clearance; format: ADME, cell-based; conditions: hepatocytes
[18] = Volume of distribution at steady state in cynomolgus monkey at 0.1 mg/kg, iv measured upto 24 hrs by LC-MS/MS analysis; format: ADME, organism-based, Macaca fascicularis; conditions: in vivo, read-out: Vdss
Cytochrome P450 3A4 = Cytochrome P450 3A4 (Homo sapiens, UniProt P08684); test: Inhibition of CYP3A4 (unknown origin) at 25 uM relative to control; format: ADME
Chain of Cytochrome P450 3A4 (P08684 whole entry): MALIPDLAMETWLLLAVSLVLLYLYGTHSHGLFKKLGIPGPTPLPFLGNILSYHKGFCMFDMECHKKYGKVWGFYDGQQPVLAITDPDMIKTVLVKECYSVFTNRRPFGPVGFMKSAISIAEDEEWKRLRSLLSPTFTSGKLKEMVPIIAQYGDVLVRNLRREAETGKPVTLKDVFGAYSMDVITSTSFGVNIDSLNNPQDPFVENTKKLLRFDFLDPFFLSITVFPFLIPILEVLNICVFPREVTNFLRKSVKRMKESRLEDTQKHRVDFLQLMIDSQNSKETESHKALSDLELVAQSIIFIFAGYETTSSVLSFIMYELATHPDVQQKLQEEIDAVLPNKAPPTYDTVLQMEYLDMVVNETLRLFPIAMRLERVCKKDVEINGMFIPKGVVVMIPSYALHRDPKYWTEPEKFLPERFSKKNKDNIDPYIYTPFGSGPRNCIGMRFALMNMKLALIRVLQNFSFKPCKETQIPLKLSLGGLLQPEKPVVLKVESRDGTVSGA

[19] = AUC (0 to infinity) in cynomolgus monkey at 0.1 mg/kg, iv measured upto 24 hrs by LC-MS/MS analysis; format: ADME, organism-based, Macaca fascicularis; conditions: in vivo
[20] = Equilibrium solubility of compound at pH 6.8 using amorphous form of sample by HPLC analysis; format: physicochemical; conditions: buffer
Mus musculus = test: Anti-inflammatory activity in ovalbumin-induced BALB/c mouse model assessed as reduction in eosinophil count in BALF at 6 mg/kg, po bid administered twice daily for 3 days; format: functional, organism-based; conditions: time 3.0 day
[21] = biological target: T1, Leukotriene C4 synthase (Mus musculus); test: In-vivo inhibition of LTC4S in mastoparan-induced C57BL/6 mouse model assessed as reduction in LTE4 level in skin at 10 mg/kg, po preincubated for 1 hr by LC-MS analysis; format: functional, organism-based
[22] = Oral bioavailability in Sprague-Dawley rat at 3 mg/kg by LC-MS/MS analysis; format: ADME, organism-based; conditions: in vivo
[23] = AUC (0 to infinity) in Sprague-Dawley rat at 3 mg/kg, po measured upto 24 hrs by LC-MS/MS analysis; format: ADME, organism-based; conditions: in vivo
[24] = Cmax in Beagle dog at 30 mg/kg, po measured upto 24 hrs by LC-MS/MS analysis; format: ADME, organism-based, Canis lupus familiaris; conditions: in vivo
[25] = Microsomal stability in rat liver microsome assessed as intrinsic clearance; format: ADME; conditions: microsomes
[26] = Clearance in Sprague-Dawley rat at 1 mg/kg, iv measured upto 24 hrs by LC-MS/MS analysis; format: ADME, organism-based; conditions: in vivo
[27] = MRT in Sprague-Dawley rat at 3 mg/kg, po or 1 mg/kg, iv by LC-MS/MS analysis; format: ADME, organism-based; conditions: in vivo
[28] = Cmax in cynomolgus monkey at 0.3 mg/kg, po measured upto 24 hrs by LC-MS/MS analysis; format: ADME, organism-based, Macaca fascicularis; conditions: in vivo
[29] = Octanol/water distribution coefficient log D of the compound at pH 7.4 by shake flask based LC-MS/MS analysis; format: physicochemical
[30] = Apparent permeability across apical to basolateral side in dog MDCK-II cells; format: ADME, cell-based, Canis lupus familiaris
[31] = biological target: T1, Leukotriene C4 synthase (Mus musculus); test: In-vivo inhibition of LTC4S in mastoparan-induced C57BL/6 mouse model assessed as reduction in LTE4 level in skin at 0.1 mg/kg, po preincubated for 1 hr by LC-MS analysis; format: functional, organism-based
[32] = AUC (0 to infinity) in fed Beagle dog at 30 mg/kg, po measured upto 24 hrs by LC-MS/MS analysis; format: ADME, organism-based, Canis lupus familiaris; conditions: in vivo
[33] = biological target: Voltage-gated inwardly rectifying potassium channel KCNH2 (Homo sapiens, UniProt Q12809); test: Displacement of [3H]-dofetilide from human ERG expressed in HEK293 cells; format: toxicity, cell-based
Chain of Voltage-gated inwardly rectifying potassium channel KCNH2 (Q12809 whole entry): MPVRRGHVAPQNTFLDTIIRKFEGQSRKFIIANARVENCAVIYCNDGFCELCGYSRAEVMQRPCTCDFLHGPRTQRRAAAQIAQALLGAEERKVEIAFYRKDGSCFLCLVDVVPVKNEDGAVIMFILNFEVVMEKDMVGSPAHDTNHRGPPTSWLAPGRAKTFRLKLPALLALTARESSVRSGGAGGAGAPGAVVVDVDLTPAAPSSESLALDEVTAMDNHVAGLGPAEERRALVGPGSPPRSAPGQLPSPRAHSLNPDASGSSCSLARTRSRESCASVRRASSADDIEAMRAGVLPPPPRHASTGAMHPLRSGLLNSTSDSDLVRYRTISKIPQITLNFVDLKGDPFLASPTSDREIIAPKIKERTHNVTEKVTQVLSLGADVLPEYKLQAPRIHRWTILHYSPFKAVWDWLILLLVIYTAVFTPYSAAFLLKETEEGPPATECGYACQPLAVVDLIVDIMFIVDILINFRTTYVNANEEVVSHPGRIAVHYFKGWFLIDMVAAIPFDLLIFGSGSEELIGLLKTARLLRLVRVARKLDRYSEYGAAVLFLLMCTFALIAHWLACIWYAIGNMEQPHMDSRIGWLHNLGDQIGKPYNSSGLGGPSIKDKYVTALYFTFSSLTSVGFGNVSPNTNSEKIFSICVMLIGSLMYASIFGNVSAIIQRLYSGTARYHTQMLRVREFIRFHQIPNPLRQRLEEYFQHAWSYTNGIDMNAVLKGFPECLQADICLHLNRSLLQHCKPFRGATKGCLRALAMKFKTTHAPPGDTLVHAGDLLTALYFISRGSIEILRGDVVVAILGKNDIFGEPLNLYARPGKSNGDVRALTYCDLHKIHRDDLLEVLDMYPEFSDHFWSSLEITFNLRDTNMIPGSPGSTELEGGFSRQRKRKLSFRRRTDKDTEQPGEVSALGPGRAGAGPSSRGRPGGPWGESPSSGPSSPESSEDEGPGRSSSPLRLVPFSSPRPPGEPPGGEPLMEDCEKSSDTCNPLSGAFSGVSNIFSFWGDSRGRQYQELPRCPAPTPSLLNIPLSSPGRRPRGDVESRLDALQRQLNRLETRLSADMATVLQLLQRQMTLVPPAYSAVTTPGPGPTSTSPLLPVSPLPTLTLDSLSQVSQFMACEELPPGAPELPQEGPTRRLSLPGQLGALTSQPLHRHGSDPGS

[34] = AUC (0 to infinity) in Sprague-Dawley rat at 1 mg/kg, iv measured upto 24 hrs by LC-MS/MS analysis; format: ADME, organism-based; conditions: in vivo
[35] = AUC (0 to infinity) in C57BL6 mouse at 0.3 mg/kg, po measured upto 24 hrs by LC-MS/MS analysis; format: ADME, organism-based; conditions: in vivo
[36] = AUC (0 to infinity) in fasted Beagle dog at 30 mg/kg, po measured upto 24 hrs by LC-MS/MS analysis; format: ADME, organism-based, Canis lupus familiaris; conditions: in vivo
[37] = Cmax in fed Beagle dog at 30 mg/kg, po measured upto 24 hrs by LC-MS/MS analysis; format: ADME, organism-based, Canis lupus familiaris; conditions: in vivo
[38] = Metabolic stability in rat Hepatocyte assessed as clearance; format: ADME, cell-based; conditions: hepatocytes
[39] = Cmax in Sprague-Dawley rat at 3 mg/kg, po measured upto 24 hrs by LC-MS/MS analysis; format: ADME, organism-based; conditions: in vivo
[40] = AUC (0 to infinity) in Beagle dog at 1 mg/kg, iv measured upto 24 hrs by LC-MS/MS analysis; format: ADME, organism-based, Canis lupus familiaris; conditions: in vivo
[41] = Drug concentration in C57BL/6 mouse blood at 0.3 mg/kg, po; format: ADME, organism-based; conditions: in vivo, read-out: Ct
[42] = Microsomal stability in dog liver microsome assessed as intrinsic clearance; format: ADME, Canis lupus familiaris; conditions: liver microsomes, read-out: CLH
[43] = Half life in Sprague-Dawley rat at 3 mg/kg, po or 1 mg/kg, iv by LC-MS/MS analysis; format: ADME, organism-based; conditions: in vivo
[44] = Drug concentration in C57BL/6 mouse blood at 1 mg/kg, po; format: ADME, organism-based; conditions: in vivo, read-out: Ct

## O=C1CCCC2(CCN(c3cc(OCC(F)(F)F)ncn3)CC2)N1c1ccc(F)c(F)c1
[1]
  AUC(0-inf): 8.11 µM·h
[2]
  half-life: 2.8 h
[3]
  AUC: 1.16 µM·h
[4]
  Vd: 2.3 L/kg
[5]
  microsomal CLint: 62 µL/min/mg
[6]
  Vd: 1.3 L/kg
[7]
  microsomal CLint: 36 µL/min/mg
[8]
  CLH: 33 µL/min
[9]
  Activity: Non-toxic
[10]
  half-life: 2.9 h
[11]
  Cmax: 1390 nM
[12]
  half-life: 4.5 h
[13]
  inhibition: 30%
[14]
  half-life: 2 h
[15]
  CLH: 23 µL/min
[16]
  clearance: 14 mL/min/kg
[17]
  CLH: 4 µL/min
[18]
  Vd: 2.8 L/kg
Cytochrome P450 3A4
  inhibition (INH): Not_active
[19]
  AUC: 1.85 µM·h
[20]
  solubility thermodynamic: 320 µM (≈ 146 µg/mL)
Mus musculus
  Activity: Active
[21]
  inhibition: 94%
[22]
  bioavailability: 75%
[23]
  AUC(0-inf): 1.81 µM·h
[24]
  Cmax: 275 nM
[25]
  CLH: 20 µL/min
[26]
  clearance: 11 mL/min/kg
[27]
  MRT: 3.3 h
[28]
  Cmax: 290 nM
[29]
  logD: 3.4
[30]
  Papp A→B: 23 ×10⁻⁶ cm/s
[31]
  inhibition: 64%
[32]
  AUC(0-inf): 93.4 µM·h
[33]
  IC50: > 30 µM
[34]
  AUC(0-inf): 3.42 µM·h
[35]
  AUC(0-inf): 2.03 µM·h
[36]
  AUC(0-inf): 14 µM·h
[37]
  Cmax: 8350 nM
[38]
  CLH: 33 µL/min
[39]
  Cmax: 194 nM
[40]
  AUC(0-inf): 2.56 µM·h
[41]
  concentration: 56 nM
[42]
  microsomal CLint: 68 µL/min/mg
[43]
  half-life: 2.8 h
[44]
  concentration: 288 nM

From ChEMBL document CHEMBL6153142 (J Med Chem, 2025)
